IC50 data for eleven compounds are collected here from patent publication US10414763B2 (CANCER RESEARCH TECHNOLOGY LIMITED, priority 2014, dated 2019).

The experiment has as its target T1, full-length human PKCι (Homo sapiens, UniProt P41743).
T1 construct: Recombinant, full-length human PKCι expressed in Sf21 insect cells is also commercially available; purchased EMD Millipore; host or cells: Sf21 insect cells (baculovirus)
T1 sequence (P41743 1-596): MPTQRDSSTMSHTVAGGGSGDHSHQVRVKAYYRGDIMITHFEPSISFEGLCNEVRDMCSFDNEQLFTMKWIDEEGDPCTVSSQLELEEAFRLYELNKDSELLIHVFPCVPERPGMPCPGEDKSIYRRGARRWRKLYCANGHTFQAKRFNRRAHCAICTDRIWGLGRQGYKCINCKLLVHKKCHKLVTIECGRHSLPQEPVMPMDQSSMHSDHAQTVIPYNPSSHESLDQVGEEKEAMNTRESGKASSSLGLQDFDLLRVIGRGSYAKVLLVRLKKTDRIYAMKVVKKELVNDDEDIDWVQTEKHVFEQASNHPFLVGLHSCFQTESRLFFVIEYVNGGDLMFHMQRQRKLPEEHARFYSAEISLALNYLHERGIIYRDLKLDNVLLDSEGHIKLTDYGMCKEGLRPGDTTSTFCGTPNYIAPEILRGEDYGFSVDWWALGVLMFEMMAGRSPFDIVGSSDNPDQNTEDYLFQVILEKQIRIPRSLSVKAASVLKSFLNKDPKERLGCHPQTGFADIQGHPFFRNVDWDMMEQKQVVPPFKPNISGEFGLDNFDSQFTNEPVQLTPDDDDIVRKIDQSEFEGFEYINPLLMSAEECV
The experiment is described as follows: PKCι IC50 IMAP fluorescence polarisation assay, full-length enzyme, 150 μM ATP. Format: biochemical. The settings on record: read-out: IC50 in IMAP assay against full length PKCi at 150 μM ATP. In short, it runs like this:
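IMAP fluorescence polarisation kinase assay: 15 pM baculovirus-expressed human PKCiota with 100 nM FAM-pseudosubstrate peptide and 150 μM ATP, 1 h at 25 °C. IMAP detection reagent then 2 h at 25 °C before FP measurement. Inhibition referenced to no-compound and no-enzyme controls for IC50 fitting.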
On the technique in general: Polarisation of emitted light reports the rotation of a fluorescent probe.

By IC50 is commonly meant the point on the concentration scale where inhibition reaches its midpoint.

For the compound `O[C@]12CCN(c3nc(-c4ccnc5[nH]c(-c6ccccc6Cl)cc45)nc4cncc(C5CC5)c34)[C@H]1CCNC2` (racemic) [Example 143, (±)-(3aS,7aS)-1-{2-[2-(2-Chloro-phenyl)-1H-pyrrolo[2,3-b]pyridin-4-yl]-5-cyclopropyl-pyrido[3,4-d]pyrimidin-4-yl}-octahydro-pyrrolo [3,2-c]pyridin-3a-ol], the IC50 was below 0.1 µM. The same measure for `O[C@]12CCN(c3nc(-c4ccnc5[nH]c6ccccc6c45)nc4cncc(C5CC5)c34)[C@H]1CCNC2` (racemic) [Example 113, (±)-(3aS,7aS)-1-[5-Cyclopropyl-2-(9H-pyrido[2,3-b]indol-4-yl)-pyrido[3,4-d]pyrimidin-4-yl]-octahydro-pyrrolo [3,2-c]pyridin-3a-ol]: below 0.1 µM. The value for `NC(=O)C1CC(Nc2nc(-c3ccnc4[nH]c5ccccc5c34)nc3cncc(C4CCC4)c23)CC1N` (centres unmarked) [Example 377, 2-amino-4-[[5-cyclobutyl-2-(9H-pyrido[2,3-b]indol-4-yl)pyrido[3,4-d]pyrimidin-4-yl]amino]cyclopentane carboxamide] was 0.1 to 1 µM; that for `COc1nc(-c2cc3c(-c4nc(N5CCC6CNCCC65)c5c(C6CC6)cncc5n4)ccnc3[nH]2)cs1` (centres unmarked) [Example 118, 5-Cyclopropyl-2-[2-(2-methoxy-thiazol-4-yl)-1H-pyrrolo[2,3-b]pyridin-4-yl]-4-(octahydro-pyrrolo[3,2-c]pyridin-1-yl)-pyrido[3,4-d]pyrimidine] was below 0.1 µM. The same measure for `Cc1ccc(-c2cc3c(-c4nc(N5CCNCC5)c5c(C6CC6)cncc5n4)ccnc3[nH]2)o1` [Example 42, 5-Cyclopropyl-2-[2-(5-methyl-furan-2-yl)-1H-pyrrolo[2,3-b]pyridin-4-yl]-4-piperazin-1-yl-pyrido[3,4-d]pyrimidine]: below 0.1 µM. As for `CC1(C)CNCC[C@@H]1Nc1nc(-c2ccnc(Nc3ncccc3F)c2)nc2cncc(C3CCC3)c12` [Example 210, {5-Cyclobutyl-2-[2-(3-fluoro-pyridin-2-ylamino)-pyridin-4-yl]-pyrido[3,4-d]pyrimidin-4-yl}-((S)-3,3-dimethyl-piperidin-4-yl)-amine], the IC50 was below 0.1 µM. As for `OC1(c2cc3c(-c4nc(N5CCNCC5)c5c(C6CCC6)cncc5n4)ccnc3[nH]2)CCSC1` (centres unmarked) [Example 13, 3-[4-(5-Cyclobutyl-4-piperazin-1-yl-pyrido[3,4-d]pyrimidin-2-yl)-1H-pyrrolo[2,3-b]pyridin-2-yl]-tetrahydro-thiophen-3-ol], the IC50 is below 0.1 µM. In the case of `C[C@@H]1CNCC[C@@H]1Nc1nc(-c2ccnc(Nc3nc(F)cc(F)c3F)c2)nc2cncc(C3CC3)c12` (racemic) [Example 301, {5-Cyclopropyl-2-[2-(3,4,6-trifluoro-pyridin-2-ylamino)-pyridin-4-yl]-pyrido[3,4-d]pyrimidin-4-yl}-(rac-(3R,4S)-3-methyl-piperidin-4-yl)-amine], the IC50 is below 0.1 µM. The same measure for `Cc1cc2c(-c3nc(NC4CCNCC4(C)C)c4c(C5CCC5)cncc4n3)ccnc2[nH]1` (centres unmarked) [Example 101, [5-Cyclobutyl-2-(2-methyl-1H-pyrrolo[2,3-b]pyridin-4-yl)-pyrido[3,4-d]pyrimidin-4-yl]-(3,3-dimethyl-piperidin-4-yl)-amine]: below 0.1 µM.

Regarding `CN(c1nc(-c2ccnc3[nH]c(-c4cc(Cl)ccc4Cl)cc23)nc2cncc(C3CC3)c12)C1CCNCC1(C)C` (centres unmarked) [Example 45, {5-Cyclopropyl-2-[2-(2,5-dichloro-phenyl)-1H-pyrrolo[2,3-b]pyridin-4-yl]-pyrido[3,4-d]pyrimidin-4-yl}-(3,3-dimethyl-piperidin-4-yl)-methyl-amine], the IC50 was below 0.1 µM. `Fc1cc(F)c(Nc2cc(-c3nc(N4CCOC5CNCC54)c4c(C5CC5)cncc4n3)ccn2)nc1F` (centres unmarked) [Example 202, {4-[5-Cyclopropyl-4-(hexahydro-pyrrolo[3,4-b][1,4]oxazin-4-yl)-pyrido[3,4-d]pyrimidin-2-yl]-pyridin-2-yl}-(3,5,6-trifluoro-pyridin-2-yl)-amine]: the IC50 is below 0.1 µM.
